From US20170290871A1, “METHOD OF TREATING HYPERTENSION” (KING SAUD UNIVERSITY, priority 2016, published 2017)

How the values were obtained:
Type in all cases: in vivo, Sprague-Dawley rats
[1] = test system: hypertension induced rats; test: GSH and SOD in tissue homogenates (liver, heart, kidney) of hypertension induced rats
Procedure: Male Sprague-Dawley rats were divided into nine groups of six rats each and treated daily for three consecutive weeks. High salt-sucrose solution was given to the rats to induce hypertension in them. […] At the end of the experimental period, arterial blood pressure and heart rate of all rats were recorded. The rats were sacrificed by decapitation and the free running blood was collected for analysis. The systolic blood pressure (SBP), the diastolic blood pressure (DBP) and the heart rate (HR) of the rats were measured by the tail cuff every day during the entire period of study in control, drug and extract treated animals. After collecting the blood samples from the rats, their abdominal cavity was opened; heart, liver and kidney were dissected out and homogenized in Tris-HCl buffer solution to make a 20% homogenate. Glutathione (GSH) and superoxide dismutase (SOD) were determined using the method described by Ellman & Misra for assessing the oxidative damage parameters in some organs.

[2] = test system: hypertension induced rats; test: Serum marker enzymes (AST, ALT, ALP) of hypertension induced rats
Procedure: (§1) Male Sprague-Dawley rats were divided into nine groups of six rats each and treated daily for three consecutive weeks. High salt-sucrose solution was given to the rats to induce hypertension in them. […] At the end of the experimental period, arterial blood pressure and heart rate of all rats were recorded. The rats were sacrificed by decapitation and the free running blood was collected for analysis. The systolic blood pressure (SBP), the diastolic blood pressure (DBP) and the heart rate (HR) of the rats were measured by the tail cuff every day during the entire period of study in control, drug and extract treated animals. For the estimation of alanine transaminase (ALT), aspartate transaminase (AST), alkaline phosphatase (ALP), total cholesterol, triglycerides, low-density lipoprotein (LDL) and high density lipoprotein (HDL), blood samples were collected in clot activator gel tubes. The serum was separated by centrifuging the blood samples at 5000 rpm for 10 minutes. Serum biochemical parameters were then measured by using commercially available reagent kits.

[3] = test system: hypertension induced rats; test: Plasma lipid profile of hypertension induced rats; details: captopril 20 mg/kg daily for three weeks, mean ± SD of 6
Procedure: as §1

[4] = test system: hypertension induced rats; test: Blood pressure and heart rate of salt-sucrose hypertension induced rats; details: captopril 20 mg/kg daily for three weeks, mean ± SD of 6
Procedure: Male Sprague-Dawley rats were divided into nine groups of six rats each and treated daily for three consecutive weeks. High salt-sucrose solution was given to the rats to induce hypertension in them. […] At the end of the experimental period, arterial blood pressure and heart rate of all rats were recorded. The rats were sacrificed by decapitation and the free running blood was collected for analysis. The systolic blood pressure (SBP), the diastolic blood pressure (DBP) and the heart rate (HR) of the rats were measured by the tail cuff every day during the entire period of study in control, drug and extract treated animals.

[5] = heart homogenate, captopril 20 mg/kg, mean ± SD of 6
[6] = kidney homogenate, captopril 20 mg/kg, mean ± SD of 6
[7] = liver homogenate, captopril 20 mg/kg, mean ± SD of 6
[8] = serum, captopril 20 mg/kg daily for three weeks, mean ± SD of 6

SMILES: C[C@H](CS)C(=O)N1CCC[C@H]1C(=O)O [Captopril, captopril]
- Heart GSH [1, 5]: 38.78 ± 4.69a^ mM/L
- Heart SOD [1, 5]: 68.92 ± 9.08a^@ U/mg
- Kidney GSH [1, 6]: 31.04 ± 2.78a^@ mM/L
- Kidney SOD [1, 6]: 67.96 ± 6.08a^@ U/mg
- Liver GSH [1, 7]: 28.92 ± 4.12a^ mM/L
- Liver SOD [1, 7]: 42.67 ± 5.62a^ U/mg
- levels of enzymic antioxidants, in words ([1]; tissue homogenates): retained to near normal values significantly
- levels of AST, ALT, ALP and lipid profile, in words [2]: brought back significantly to near normal
- ALP [2, 8]: 132.12 ± 17.41a* IU/L
- ALT [2, 8]: 85.44 ± 10.33a* IU/L
- AST [2, 8]: 45.03 ± 5.44a* IU/L
- CHOLESTEROL [3]: 135.42 ± 13.41a* mg/dL
- HDL [3]: 41.46 ± 4.55a* mg/dL
- LDL [3]: 89.23 ± 9.8a* mg/dL
- TRIGLYCERIDES [3]: 106.41 ± 9.52a* mg/dL
- Diastolic BP [4]: 95.56 ± 10.5a* mm Hg
- Heart rate [4]: 328.86 ± 36.14a* beats/min
- Systolic BP [4]: 121.45 ± 10.9a* mm Hg
